Here are results for 10 compounds from US4425355A, “Substituted acyl derivatives of chair form of octahydro-1H-indole-2-carboxylic acids” (Warner-Lambert Company, priority 1981, dated 1984).

For the assay, the target named is T1, Angiotensin converting enzyme (ACE) (Cavia porcellus, UniProt H0UWL7).
T1 construct: ACE from guinea pig serum and the test compounds are preincubated for 10 minutes; from tissue; host or cells: guinea pig serum
T1 sequence (H0UWL7 33-1302): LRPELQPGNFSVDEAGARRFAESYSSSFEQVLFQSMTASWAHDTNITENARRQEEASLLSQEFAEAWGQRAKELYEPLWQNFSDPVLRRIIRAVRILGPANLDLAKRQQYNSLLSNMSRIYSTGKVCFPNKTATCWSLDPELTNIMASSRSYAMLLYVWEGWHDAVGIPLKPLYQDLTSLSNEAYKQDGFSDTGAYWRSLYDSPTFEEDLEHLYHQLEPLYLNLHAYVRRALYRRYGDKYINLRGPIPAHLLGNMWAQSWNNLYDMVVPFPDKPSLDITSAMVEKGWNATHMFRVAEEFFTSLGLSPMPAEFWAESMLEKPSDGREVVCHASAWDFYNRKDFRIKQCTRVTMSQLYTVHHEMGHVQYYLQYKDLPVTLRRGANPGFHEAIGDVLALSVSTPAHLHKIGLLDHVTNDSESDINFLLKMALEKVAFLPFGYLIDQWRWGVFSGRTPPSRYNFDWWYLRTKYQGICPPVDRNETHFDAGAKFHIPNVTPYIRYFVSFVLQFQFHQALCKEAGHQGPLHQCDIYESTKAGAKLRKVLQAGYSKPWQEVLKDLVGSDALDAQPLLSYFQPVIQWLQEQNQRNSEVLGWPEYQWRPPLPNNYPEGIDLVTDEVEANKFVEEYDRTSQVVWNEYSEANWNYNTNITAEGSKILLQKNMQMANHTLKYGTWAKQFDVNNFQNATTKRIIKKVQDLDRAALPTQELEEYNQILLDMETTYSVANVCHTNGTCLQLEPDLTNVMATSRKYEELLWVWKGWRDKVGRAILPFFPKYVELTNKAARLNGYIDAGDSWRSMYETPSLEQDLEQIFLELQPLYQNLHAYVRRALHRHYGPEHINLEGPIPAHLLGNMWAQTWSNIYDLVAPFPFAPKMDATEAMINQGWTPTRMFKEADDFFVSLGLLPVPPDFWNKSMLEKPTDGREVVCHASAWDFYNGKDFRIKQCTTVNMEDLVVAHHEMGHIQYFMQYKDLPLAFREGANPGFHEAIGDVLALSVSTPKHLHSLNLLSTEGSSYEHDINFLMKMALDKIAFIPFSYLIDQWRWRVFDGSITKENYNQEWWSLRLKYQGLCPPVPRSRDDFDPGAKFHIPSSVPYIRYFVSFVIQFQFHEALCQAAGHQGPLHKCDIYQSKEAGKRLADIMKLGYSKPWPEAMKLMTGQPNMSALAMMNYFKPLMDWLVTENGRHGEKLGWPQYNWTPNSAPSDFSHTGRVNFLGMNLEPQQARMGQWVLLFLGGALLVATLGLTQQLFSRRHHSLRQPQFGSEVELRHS
Kind of assay: In vitro ACE Assay: angiotensin converting enzyme inhibitory activity (guinea pig serum ACE, 3H-hippuryl-glycyl-glycine substrate). Format: biochemical. The settings on record: 10 min preincubation, 60 minute incubation at 37° C., read-out: IC50 (Activity of Compounds of Formula V). Here is the method:
In vitro ACE Assay: Angiotensin converting enzyme (ACE) inhibitory activity is determined by assaying guinea pig serum ACE in the presence and absence of the test compound. ACE from guinea pig serum and the test compounds are preincubated for 10 minutes before the addition of the labelled substrate ^3 H-hippuryl-glycyl-glycine. […] ACE cleaves the hippuryl-glycyl bond to form the dipeptide glycyl-glycine and ^3 H-hippuric acid. The ^3 H-hippuric acid is then extracted with ethyl acetate and the ACE inhibition of a given sample calculated on the basis of the ^3 H-hippuric acid generated.

The structures appear in SMILES notation. Counter-ions that a name gives are not always drawn.

One may read the IC50 as the concentration that gives 50% inhibition. Turning to `CC(CS)C(=O)N1[C@H](C(=O)O)C[C@@H]2CCCC[C@@H]21` (single isomer, unassigned; diastereomer a) [V: R=H, R1=CH3, R2=H, dl, A, (2α,3aβ,7aβ)-Octahydro-1-(3-mercapto-2-methylpropanoyl)-1H-indole-2-carboxylic Acid, Diastereomer A], the IC50 is 7 nM.

Turning to `CC(CSC(=O)c1ccccc1)C(=O)N1[C@H](C(=O)O)C[C@@H]2CCCC[C@@H]21` (single isomer, unassigned; diastereomer a) [V: R=H, R1=CH3, R2=PhCO, dl, A, (2α,3aβ,7aβ)-Octahydro-1-[3-(benzoylthio)-2-methylpropaoyl]-1H-indole-2-carboxylic Acid (Diastereomer A) t-Butylamine Salt], the concentration for half-maximal inhibition (IC50) came out at 960 nM.

In the case of `CCOC(=O)[C@@H]1C[C@@H]2CCCC[C@@H]2N1C(=O)C(C)CSC(C)=O` (relative stereo) [V: R=C2 H5, R1=CH3, R2=CH3 CO, --, Ethyl (2α,3aβ,7aβ)-Octahydro-1-[3-(acetylthio)-2-methylpropanoyl]-1H-indole-2-carboxylate], the half-maximal inhibitory concentration (IC50) was determined as 6700 nM.

Regarding `CCC(=O)SCC(C)C(=O)N1[C@H](C(=O)O)C[C@@H]2CCCC[C@@H]21` (single isomer, unassigned; diastereomer a) [V: R=H, R1=CH3, R2=CH3 CH2 CO, dl, A, (2α,3aβ,7aβ)-Octahydro-1-[3-(propanoylthio)-2-methylpropanoyl]-1H-indole-2-carboxylic Acid, (Diastereomer A)], the 50% inhibitory concentration (IC50) stood at 52 nM.

`CC(=O)SCC(C)C(=O)N1[C@H](C(=O)O)C[C@@H]2CCCC[C@@H]21` (single isomer, unassigned; diastereomer b) [V: R=H, R1=CH3, R2=CH3 CO, dl, B, (2α,3aβ,7aβ)-Octahydro-1-[3-(acetylthio)-2-methylpropanoyl]-1H-indole-2-carboxylic Acid, Diastereomer B.]: the IC50 turned out to be 1100 nM.

Regarding `CC(CSC(=O)C(C)(C)C)C(=O)N1[C@H](C(=O)O)C[C@@H]2CCCC[C@@H]21` (single isomer, unassigned) [V: R=H, R1=CH3, R2=(CH3)3 CCO, dl, A, (2α,3aβ,7aβ)-Octahydro-1-[3-(2,2-dimethylpropanoylthio)-2-methylpropanoyl]-1H-indole-2-carboxylic Acid], the half-inhibitory concentration (IC50) came to 170 nM.

As to `O=C(O)[C@@H]1C[C@@H]2CCCC[C@@H]2N1C(=O)CCS` (relative stereo) [V: R=H, R1=H, R2=H, l, (1)-(2α,3aβ,7aβ)-Octahydro-1-(3-mercaptopropanoyl)-1H-indole-2-carboxylic Acid], the half-maximal inhibitory concentration (IC50) is 6.4 nM.

`CC(=O)SCC(C)C(=O)N1[C@H](C(=O)O)C[C@@H]2CCCC[C@@H]21` (single isomer, unassigned; diastereomer a) [V: R=H, R1=CH3, R2=CH3 CO, A, (2α,3aβ,7aβ)-Octahydro-1-[3-(acetylthio)-2-methyl-propanoyl]-1H-indole-2-carboxylic Acid, Diastereomer A]: the IC50 is 160 nM.

As to `CC(CS)C(=O)N1[C@H](C(=O)O)C[C@@H]2CCCC[C@@H]21` (relative stereo) [V: R=H, R1=CH3, R2=H, --, (2α,3aβ,7aβ)-Octahydro-1-(3-mercapto-2-methylpropanoyl)-1H-indole-2-carboxylic acid], the concentration for half-maximal inhibition (IC50) came out at 16 nM.

In the case of `CC(=O)SCCC(=O)N1[C@H](C(=O)O)C[C@@H]2CCCC[C@@H]21` (relative stereo) [V: R=H, R1=H, R2=CH3 CO, l, (1)-(2α,3aβ,7aβ)-Octahydro-1-[3-(acetylthio)-propanoyl]-1H-indole-2-carboxylic Acid], the IC50 stood at 480 nM.
